# Several values for one entry are separate records, joined by “and”; a condition that tells them apart may be missing. Equal values may be shown once.
# Assays:
# factor VII = factor VII (Homo sapiens, UniProt P08709); experiment: Factor VII inhibition assay (Ki, Example 5); format: biochemical
# Procedure: (§1) The reaction progress curves were recorded by reading the plates, typically 60 times with 30 second to 2 minute intervals. Initial rates were determined by unweighted nonlinear least-squares fitting to a first order reaction in GraFit (Erithacus Software Limited, London, England).
# From this concentration point seven more sequential dilutions were made for the assay.
# factor X = factor X (Bos taurus, UniProt P00743); experiment: Factor X inhibition assay (Ki, Example 5), bovine plasma enzyme; format: biochemical; details: bovine plasma enzyme (Example 5 protocol)
# Procedure: as §1, with “The hydrolysis of chromogenic substrates was monitored at 405 nm. The” for “The”
# Buffer and substrate were the same as used for thrombin assay. A 1:100 dilution was made in the pH8.0 tris buffer to serve as the first point. Seven more dilutions from the first were made for the assay.
# urokinase [1] = target: T1, urokinase (Homo sapiens, UniProt P00749); experiment: Urokinase inhibition assay (Ki, Example 5); format: biochemical
# [2] = target: T2, Tissue Plasminogen Activator (t-PA) (Homo sapiens, UniProt P00750); experiment: t-PA inhibition assay (Ki, Example 5); format: biochemical; details: read-out: Ki t-PA
# Procedure: as §1
# [3] = target: Activated Protein C (aPC) (Homo sapiens, UniProt P04070); experiment: Activated Protein C inhibition assay (Ki, Example 5); format: biochemical
# Plasmin [4] = target: T3, Plasmin (Bos taurus, UniProt P06868); experiment: Plasmin inhibition assay (Ki, Example 5); format: biochemical, bovine
# Procedure: as §1
# tryptase = tryptase (Homo sapiens, UniProt Q15661); experiment: Tryptase inhibition assay (Ki, Example 5); format: biochemical
# trypsin = target: T4, trypsin (Bos taurus, UniProt P00760); experiment: Trypsin inhibition assay (Ki, Example 5); format: biochemical, bovine
# T4 sequence (P00760 24-246): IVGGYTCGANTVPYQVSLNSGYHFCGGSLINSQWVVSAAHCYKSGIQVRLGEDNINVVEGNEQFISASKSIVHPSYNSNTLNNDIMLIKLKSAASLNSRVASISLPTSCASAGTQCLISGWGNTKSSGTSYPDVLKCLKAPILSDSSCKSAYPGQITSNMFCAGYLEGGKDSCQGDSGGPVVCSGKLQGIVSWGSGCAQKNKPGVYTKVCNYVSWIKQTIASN
# Procedure: as §1
# Factor XI = Factor XI (Homo sapiens, UniProt P03951); experiment: Factor XI inhibition assay (Ki, Example 8); format: biochemical
# Procedure: as §1
# Factor XI. The same buffer was utilized in this assay as in the thrombin assay. […] From this 100 μM solution, seven serial 1:5 dilutions were made in buffer for assay.
# thrombin = thrombin (Bos taurus, UniProt P00735); experiment: Thrombin inhibition assay (Ki, Example 5); format: biochemical, bovine; parameters: thrombin; bovine plasma; 0.66; from tissue; host or cells: bovine plasma
# Procedure: as §1
# Seven sequential dilutions were made from the first point for the assay.
# bovine thrombin = target: T5, bovine thrombin (Bos taurus, UniProt P00735); experiment: Thrombin assay, hydrolysis of structure (11b) as proteolytic substrate; format: biochemical
# T5 construct: 6.4 NIH units of bovine thrombin (from Sigma); purchased Sigma
# Procedure: (§2) Both the thrombin and Factor VII assays of this experiment were carried out at 37° C. using a Hitachi UV/Vis spectrophotometer (model U-3000). Structure (11b) was dissolved in deionized water. The concentration was determined from the absorbance at 342 nm. […] Initial velocities were calculated from the initial linear portion of the reaction progress curve. Kinetic parameters were determined by unweighted nonlinear least-squares fitting of the simple Michaelis-Menten equation to the experimental data using GraFit (Version 3.0, Erithacus Software Limited).
# For the thrombin assay, experiments were performed in pH 8.4 Tris buffer (Tris, 0.05M; NaCl, 0.15M). 6.4 NIH units of bovine thrombin (from Sigma) were dissolved into 10 ml of the assay buffer to yield 10 nM thrombin solution. […] The first two minutes of the reactions were recorded for initial velocity determination.
# (§3) In both the thrombin and Factor VII assay of this experiment, (D)FPR-PNA was run as a control.
# [5] = target: T6, human Factor VIIa (FVIIa) and human tissue factor (TF) (Homo sapiens, UniProt P08709); experiment: Factor VII assay, hydrolysis of structure (11b) as proteolytic substrate; format: biochemical; details: ratio of kcat/KM
# T6 construct: 10 μl of 20 μM human Factor VIIa (FVIIa)
# Procedure: as §2
# For the Factor VII assay, pH 8.0 Tris buffer (0.05 M Tris, 5 mM CaCl2, 0.15 M NaCl, 0.1% TWEEN 20, 0.1% BSA) was used. 10 μl of 20 μM human Factor VIIa (FVIIa) and 22 μM of human tissue factor (TF) was brought to assay buffer to make 160 nM FVIIa and TF solutions, respectively. […] The initial 3 minutes reaction progress curves were recorded. […] The kcat/KM was calculated from the slope and found to be 17,500 M^−1s^−1.
# as §3
# FVIIa and TF complex = target: T7, FVIIa and TF complex (Homo sapiens, UniProt P08709); experiment: Factor VII inhibition assay (IC50, Example 4); format: biochemical
# T7 construct: 50 μl of 16 nM FVIIa and TF complex solution
# Procedure: (§4) This solution (2.05 mM) served as the stock solution for all the inhibition assays. The hydrolysis of chromogenic substrates was monitored at 405 nm. The reaction progress curves were recorded by reading the plates typically 90 times with 30 seconds to 2 minute intervals. The initial rate were determined by unweighted nonlinear least-squares fitting to a first order reaction in GraFit.
# In the Factor VII assay, S-2288 (from Pharmacia), D-Ile-Pro-Arg-pNA was used at […] in deionized water as substrate. […] This dilution served as the first point of the inhibitor (20 μM). From this concentration point 6 more sequential dilutions were made with a dilution factor of 2. 50 μl of 16 nM FVIIa and TF complex solution and 40 μl of the inhibitor solutions were added into each well, the mixtures were incubated for 20 minutes before 10 μl of 20 mM S-2288 was added.
# bovine factor Xa = target: T8, bovine factor Xa (Bos taurus, UniProt P00743); experiment: Factor X inhibition assay (IC50, Example 4); format: biochemical
# T8 construct: 25 nM of bovine factor Xa (from Sigma); purchased Sigma
# Procedure: as §4
# In the Factor X assay, buffer and substrate are the same as used for thrombin assay. A 1:100 dilution was made into pH 8.4 Tris buffer to serve as the first point. Seven dilutions with a dilution factor of 2 were made. The assay protocol is the same as for thrombin except 25 nM of bovine factor Xa (from Sigma) in pH 8.4 Tris buffer was used instead of thrombin.
# [6] = target: T2, Tissue Plasminogen Activator (t-PA); experiment: Tissue plasminogen activator inhibition assay (IC50, Example 4); format: biochemical
# Procedure: as §4
# Buffer, substrate and the dilution scheme of structure (13b) were the same as utilized for Factor VII assay.
# Plasmin [7] = target: T3, Plasmin; experiment: Plasmin inhibition assay (IC50, Example 4); format: biochemical
# Procedure: as §4
# For dilutions of structure (13b) (see urokinase assay).
# bovine trypsin = target: T9, bovine trypsin (Bos taurus, UniProt P00760); experiment: Trypsin inhibition assay (IC50, Example 4); format: biochemical
# T9 construct: purchased Sigma
# T9 sequence (P00760 24-246): T4 sequence (P00760 24-246)
# Procedure: as §4
# In the trypsin assay, pH 7.8 Tris (0.10 M Tris and 0.02 M CaCl2) was utilized as the buffer. BAPNA (from Sigma) was used at 1 mg/ml in 1% DMSO (v/v) deionized water solution as substrate. The same dilutions of structure (13b) were made as for Factor VII assay.
# control plasma = experiment: Prothrombin time (PT) in control plasma; format: biochemical
# Procedure: Then 200 μl of prewarmed (at 37° C. for ˜10 minutes) thromboplastin with calcium (from Sigma) was rapidly added into the plasma sample.
# urokinase [8] = target: T1, urokinase; experiment: Urokinase inhibition assay (IC50, Example 4); format: biochemical; parameters: purchased Sigma
# Procedure: as §4
# In the urokinase assay, buffer was pH 8.8 0.05 M Tris and 0.05 M NaCl in deionized water. S-2444 (from Sigma), pyroGlu-Gly-Arg-pNA at 0.5 mM in water was utilized as substrate. The same dilution procedure was used as for Factor VII and Factor X. Assay protocol is the same as for thrombin except 18.5 nM of human urokinase (from Sigma) was utilized.
# T2 sequence (P00750 36-562): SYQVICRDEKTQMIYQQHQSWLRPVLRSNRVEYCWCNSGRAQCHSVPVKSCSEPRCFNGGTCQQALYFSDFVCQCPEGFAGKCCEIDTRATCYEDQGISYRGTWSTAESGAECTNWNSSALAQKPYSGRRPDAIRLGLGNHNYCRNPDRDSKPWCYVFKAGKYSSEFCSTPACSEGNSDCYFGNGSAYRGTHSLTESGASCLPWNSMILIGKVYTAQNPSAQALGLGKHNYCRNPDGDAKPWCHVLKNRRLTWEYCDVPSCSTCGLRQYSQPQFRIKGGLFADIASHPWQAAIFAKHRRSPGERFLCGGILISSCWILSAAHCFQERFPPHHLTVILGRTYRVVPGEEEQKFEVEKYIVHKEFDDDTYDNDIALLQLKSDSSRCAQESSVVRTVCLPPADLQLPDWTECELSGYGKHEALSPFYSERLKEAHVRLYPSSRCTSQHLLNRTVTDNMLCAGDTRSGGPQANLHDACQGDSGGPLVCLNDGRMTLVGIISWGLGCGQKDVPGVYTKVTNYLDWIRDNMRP
# T3 sequence (P06868 584-812 limits assumed): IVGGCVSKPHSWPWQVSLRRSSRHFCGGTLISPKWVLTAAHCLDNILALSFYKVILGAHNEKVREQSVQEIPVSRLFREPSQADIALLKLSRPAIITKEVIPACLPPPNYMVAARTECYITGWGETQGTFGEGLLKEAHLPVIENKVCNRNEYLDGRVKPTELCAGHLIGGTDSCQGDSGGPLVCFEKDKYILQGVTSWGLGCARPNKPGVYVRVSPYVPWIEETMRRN
# T3 sequence (P06868 104-583 limits assumed): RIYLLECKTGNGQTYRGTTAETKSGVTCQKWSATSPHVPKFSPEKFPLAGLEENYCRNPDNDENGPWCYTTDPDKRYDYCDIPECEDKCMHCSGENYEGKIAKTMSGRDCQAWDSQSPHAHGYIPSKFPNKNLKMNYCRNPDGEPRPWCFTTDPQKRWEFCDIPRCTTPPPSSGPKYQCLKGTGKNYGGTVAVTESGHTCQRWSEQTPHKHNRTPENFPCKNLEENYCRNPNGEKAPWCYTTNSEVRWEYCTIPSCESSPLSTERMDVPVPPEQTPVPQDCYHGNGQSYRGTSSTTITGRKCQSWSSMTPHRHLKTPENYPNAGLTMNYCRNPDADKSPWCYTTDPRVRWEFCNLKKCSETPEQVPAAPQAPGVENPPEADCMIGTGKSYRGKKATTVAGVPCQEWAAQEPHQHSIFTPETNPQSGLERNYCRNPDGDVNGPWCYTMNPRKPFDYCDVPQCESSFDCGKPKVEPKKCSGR
# T7 sequence (P08709 213-466 limits assumed): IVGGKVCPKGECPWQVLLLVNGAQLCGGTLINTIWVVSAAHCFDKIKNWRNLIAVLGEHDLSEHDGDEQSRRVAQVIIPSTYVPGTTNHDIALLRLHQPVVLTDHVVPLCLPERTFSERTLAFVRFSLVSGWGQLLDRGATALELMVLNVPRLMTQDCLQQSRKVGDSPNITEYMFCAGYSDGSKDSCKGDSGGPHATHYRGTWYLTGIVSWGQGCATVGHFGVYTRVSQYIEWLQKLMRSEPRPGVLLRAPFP
# T7 sequence (P08709 61-212 limits assumed): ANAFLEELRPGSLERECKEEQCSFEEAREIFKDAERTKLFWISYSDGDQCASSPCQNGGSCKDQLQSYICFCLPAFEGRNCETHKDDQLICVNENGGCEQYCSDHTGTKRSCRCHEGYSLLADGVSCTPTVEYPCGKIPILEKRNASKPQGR
# T7 sequence (P13726 33-295 partner): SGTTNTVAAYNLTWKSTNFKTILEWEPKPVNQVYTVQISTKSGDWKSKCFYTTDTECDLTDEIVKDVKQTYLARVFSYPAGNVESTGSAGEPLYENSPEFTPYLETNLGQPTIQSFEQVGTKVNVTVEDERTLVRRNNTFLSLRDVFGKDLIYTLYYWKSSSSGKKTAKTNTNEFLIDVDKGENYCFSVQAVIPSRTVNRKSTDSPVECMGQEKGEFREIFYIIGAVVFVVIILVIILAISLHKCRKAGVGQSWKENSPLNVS
# factor VII, sequence (P08709 213-466 limits assumed): as the sequence (P08709 213-466 limits assumed) above
# factor VII, sequence (P08709 61-212 limits assumed): as the sequence (P08709 61-212 limits assumed) above
# factor VII, sequence (P13726 33-295 partner): as the sequence (P13726 33-295 partner) above
# T6 sequence (P08709 213-466 limits assumed): as the sequence (P08709 213-466 limits assumed) above
# T6 sequence (P08709 61-212 limits assumed): as the sequence (P08709 61-212 limits assumed) above
# T6 sequence (P13726 33-295 partner): as the sequence (P13726 33-295 partner) above
# tryptase, sequence (Q15661 31-275): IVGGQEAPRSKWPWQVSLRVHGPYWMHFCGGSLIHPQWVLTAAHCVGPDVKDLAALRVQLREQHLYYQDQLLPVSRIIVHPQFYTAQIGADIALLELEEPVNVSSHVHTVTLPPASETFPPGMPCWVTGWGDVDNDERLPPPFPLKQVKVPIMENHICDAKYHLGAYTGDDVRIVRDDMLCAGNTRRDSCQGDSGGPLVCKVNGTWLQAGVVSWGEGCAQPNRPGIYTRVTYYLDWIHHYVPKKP
# T8 sequence (P00743 234-492 limits assumed): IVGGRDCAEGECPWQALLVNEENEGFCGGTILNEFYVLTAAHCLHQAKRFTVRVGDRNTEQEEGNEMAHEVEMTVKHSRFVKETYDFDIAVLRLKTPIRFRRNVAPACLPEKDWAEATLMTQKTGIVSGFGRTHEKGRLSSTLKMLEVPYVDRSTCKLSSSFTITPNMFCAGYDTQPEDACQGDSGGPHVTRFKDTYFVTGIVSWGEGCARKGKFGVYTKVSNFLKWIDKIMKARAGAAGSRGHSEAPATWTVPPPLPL
# T8 sequence (P00743 41-180 limits assumed): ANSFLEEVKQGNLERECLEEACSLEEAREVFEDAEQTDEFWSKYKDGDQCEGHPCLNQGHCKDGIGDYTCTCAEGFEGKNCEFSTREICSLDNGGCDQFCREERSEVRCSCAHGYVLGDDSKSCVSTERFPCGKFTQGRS
# factor X, sequence (P00743 234-492 limits assumed): as the sequence (P00743 234-492 limits assumed) above
# factor X, sequence (P00743 41-180 limits assumed): as the sequence (P00743 41-180 limits assumed) above
# Factor XI, sequence (P03951 388-625 limits assumed): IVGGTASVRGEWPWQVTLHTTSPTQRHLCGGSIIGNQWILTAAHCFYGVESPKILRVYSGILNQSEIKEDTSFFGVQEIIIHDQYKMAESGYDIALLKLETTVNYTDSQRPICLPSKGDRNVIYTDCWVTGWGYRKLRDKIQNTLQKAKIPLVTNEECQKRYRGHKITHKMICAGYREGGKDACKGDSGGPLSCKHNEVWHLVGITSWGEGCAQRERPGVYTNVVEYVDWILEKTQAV
# Factor XI, sequence (P03951 19-387 limits assumed): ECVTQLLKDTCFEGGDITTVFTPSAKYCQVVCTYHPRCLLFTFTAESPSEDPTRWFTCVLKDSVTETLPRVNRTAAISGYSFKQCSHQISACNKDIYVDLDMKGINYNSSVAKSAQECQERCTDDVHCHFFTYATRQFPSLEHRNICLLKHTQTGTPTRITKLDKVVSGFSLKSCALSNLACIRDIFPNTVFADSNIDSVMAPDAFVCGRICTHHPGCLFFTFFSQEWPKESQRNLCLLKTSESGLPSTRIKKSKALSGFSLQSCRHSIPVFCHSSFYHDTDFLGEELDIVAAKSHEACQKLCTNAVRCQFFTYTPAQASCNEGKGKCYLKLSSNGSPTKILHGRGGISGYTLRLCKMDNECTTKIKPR
# Activated Protein C (aPC), sequence (P04070 212-461 limits assumed): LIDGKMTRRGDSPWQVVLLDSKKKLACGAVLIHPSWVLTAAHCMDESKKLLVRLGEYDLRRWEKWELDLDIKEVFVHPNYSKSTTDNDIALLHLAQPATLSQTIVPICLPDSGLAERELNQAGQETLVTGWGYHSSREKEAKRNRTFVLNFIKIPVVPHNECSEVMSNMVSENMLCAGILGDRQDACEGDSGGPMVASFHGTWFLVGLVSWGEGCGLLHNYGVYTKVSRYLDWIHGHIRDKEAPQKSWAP
# Activated Protein C (aPC), sequence (P04070 43-197 limits assumed): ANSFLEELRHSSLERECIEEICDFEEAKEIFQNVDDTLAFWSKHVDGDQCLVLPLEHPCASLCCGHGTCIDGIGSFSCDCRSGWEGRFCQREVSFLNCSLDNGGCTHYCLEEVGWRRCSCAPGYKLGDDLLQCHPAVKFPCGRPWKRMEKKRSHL
compound,measurement,setting,value
N=C(N)NCCC[C@H](NC(=O)[C@@H]1CC[C@@H]2CC[C@@](N)(Cc3ccccc3)C(=O)N21)C(=O)c1nc2ccccc2s1 [Structure 29b],Ki,factor VII,200 nM
same,Ki,factor X,17 nM
same,Ki,urokinase [1],335 nM
same,Ki,[2],92.9 nM
same,Ki,[3],1250 nM
same,Ki,Plasmin [4],251 nM
same,Ki,tryptase,9 nM
same,Ki,trypsin,0.2 nM and 0.23 nM
same,Ki,Factor XI,75.3 nM
same,Ki,thrombin,0.085 nM
N=C(N)NCCC[C@H](NC(=O)[C@@H]1CCN2CC[C@@](N)(Cc3ccccc3)C(=O)N12)C(=O)Nc1ccc([N+](=O)[O-])cc1 [Structure 11b],kcat,"bovine thrombin; substrate hydrolysis, pH 8.4 Tris, 37° C.",50 s⁻¹
same,Activity compared to the control (D)FPR-PNA,"bovine thrombin; thrombin, ratio of kcat/KM",0.76
same,Activity compared to the control (D)FPR-PNA,[5],1.38
"N=C(N)NCCC[C@H](NC(=O)[C@@H]1CCCN1C(=O)[C@H](N)Cc1ccccc1)C(=O)CCl [PPACK, reference compound]",IC50,FVIIa and TF complex,200 nM
same,IC50,bovine factor Xa,165 nM
same,IC50,[6],106 nM
same,IC50,Plasmin [7],699 nM
same,IC50,bovine trypsin,212 nM
same,PT,control plasma; Concentration 500 pM,15 s
same,PT,control plasma; Concentration 1 nM,18 s
same,PT,control plasma; Concentration 10 nM,22 s
same,PT,control plasma; Concentration 20 nM,25 s
same,PT,control plasma; Concentration 40 nM,28 s
same,PT,control plasma; Concentration 60 nM,30 s
same,PT,control plasma; Concentration 80 nM,31 s
